Here are results for 14 compounds from patent publication US8071778B2, “Substituted heterocyclic ethers and their use in CNS disorders” (Bristol-Myers Squibb Company, priority 2006, dated 2011).

SMILES strings stand for the structures. Read-outs that look alike come from different tables or passages of the source.

The term IC50 denotes the concentration needed to halve the response being measured.

One experiment addresses T1, NK-1 (Homo sapiens, UniProt P25103).
T1 construct: endogenous in cells; host or cells: U373 cells (crude membranes)
The experiment in a line: NK1 radioligand binding assay. The conditions noted are these: U373 membrane preparation, [125I]Substance P. As to the method:
(§1) NK-1 Binding assay. Crude membrane suspensions were prepared for the NK1 and SERT radioligand binding assays from U373 cells or recombinant HEK-293 cells expressing hSERT, respectively. […] The medium is removed from the flasks and the cells rinsed with HBSS without Ca and without Mg. The cells are then incubated for 5-10 minutes in 10 mM Tris-Cl, pH 7.5, 5 mM EDTA before the cells are lifted with a combination of pipetting and scraping, as needed. To prepare membranes, the cell suspension is collected into centrifuge bottles and homogenized for 30 seconds with a Polytron homogenizer. The suspension is centrifuged for 30 min 32,000×g, 4° C., then the supernatant is decanted and the pellet resuspended and homogenized in 50 mM Tris-Cl, pH 7.5, 1 mM EDTA for 10 seconds. The suspension is then centrifuged again for 30 min 32,000×g, 4° C. The supernatant is decanted and the pellet resuspended in 50 mM Tris-Cl, pH 7.5, 1 mM EDTA and briefly homogenized. A Bradford assay (Bio-rad) is performed and the membrane preparation diluted to 2 mg/ml with 50 mM Tris-Cl, pH 7.5, 1 mM EDTA. Aliquots are prepared, and then frozen and stored at −80° C.
(§2) NK1 radioligand binding assay. Compounds are dissolved in 100% DMSO at a concentration 100× the desired highest assay concentration, serially diluted 1:3 in 100% DMSO, and 0.6 ul/well of each solution is dispensed to a Nunc polypropylene, round bottom, 384 well plate. […] The contents of the assay plate are then transferred to a Millipore MultiscreenHTS GF/B filter plate which has been pretreated with 0.5% PEI for at least one hour. The plate is vacuum filtered and washed with 7 washes of 100 ul/well of 20 mM Tris-Cl, pH 7.5, 0.5% (w/v) BSA chilled to 4° C. The filtration and washing is completed in less than 90 s. The plates are air-dried overnight, 12 ul/well of MicroScint scintillation fluid added, and the plates counted in a Trilux.
(§3) Data analysis. […] Each plate is run in triplicate, and the concentration response curve thus generated is fit using the four-parameter dose response equation, Y=Bottom+(Top-Bottom)/(1+10^((Log IC50−X)*HillSlope)) in order to determine the IC50 value for each compound. The radioligand concentration chosen for each assay corresponds to the Kd concentration determined through saturation binding analysis for each assay.

The target of another experiment is T2, hSERT (Homo sapiens, UniProt P31645).
T2 construct: expressed in transfected cells; host or cells: HEK-293 cells (crude membranes)
T2 sequence (P31645 whole entry): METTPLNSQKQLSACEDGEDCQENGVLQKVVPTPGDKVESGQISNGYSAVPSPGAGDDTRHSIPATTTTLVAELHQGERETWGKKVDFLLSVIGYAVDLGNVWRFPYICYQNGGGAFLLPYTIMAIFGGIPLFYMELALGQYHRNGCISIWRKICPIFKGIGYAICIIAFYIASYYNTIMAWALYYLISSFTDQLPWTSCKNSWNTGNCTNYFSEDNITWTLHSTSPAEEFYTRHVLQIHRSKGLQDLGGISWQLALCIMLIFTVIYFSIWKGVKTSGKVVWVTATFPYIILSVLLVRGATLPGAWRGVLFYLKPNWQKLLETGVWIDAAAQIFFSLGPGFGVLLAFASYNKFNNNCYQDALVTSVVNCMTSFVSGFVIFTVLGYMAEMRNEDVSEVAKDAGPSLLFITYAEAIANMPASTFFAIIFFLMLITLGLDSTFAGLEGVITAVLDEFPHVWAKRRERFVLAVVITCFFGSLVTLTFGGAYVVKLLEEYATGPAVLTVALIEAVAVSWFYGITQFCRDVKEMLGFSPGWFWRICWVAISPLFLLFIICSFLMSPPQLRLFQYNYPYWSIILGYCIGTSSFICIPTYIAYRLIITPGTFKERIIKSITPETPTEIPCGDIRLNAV
Kind of experiment: SERT radioligand binding assay. As to the method:
as §1
as §2, with “SERT” for “NK1”, “0.4” for “0.6”, “50” for “20”, “120 mM NaCl, 5 mM KCl” for “0.5% (w/v) BSA”
as §3

The mark [1] stands for this setting: HEK-hSERT membrane preparation, [125I]RTI-55, read-out: SERT IC50.

T1 sequence (P25103 whole entry): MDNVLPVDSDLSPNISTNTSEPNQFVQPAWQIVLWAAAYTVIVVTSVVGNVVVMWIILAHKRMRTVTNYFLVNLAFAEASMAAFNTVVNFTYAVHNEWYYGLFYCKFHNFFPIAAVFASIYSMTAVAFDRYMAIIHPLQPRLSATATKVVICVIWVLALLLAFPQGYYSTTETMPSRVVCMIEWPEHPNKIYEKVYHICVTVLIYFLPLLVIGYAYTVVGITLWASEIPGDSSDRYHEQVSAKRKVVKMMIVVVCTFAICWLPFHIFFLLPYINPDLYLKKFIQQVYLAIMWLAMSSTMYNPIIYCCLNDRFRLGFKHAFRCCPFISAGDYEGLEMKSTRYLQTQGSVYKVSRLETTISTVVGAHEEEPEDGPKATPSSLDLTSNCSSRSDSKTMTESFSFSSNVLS

As for `CC(OCC1(c2ccc(F)cc2)CCN(C)CC1)c1cc(C(F)(F)F)cc(Br)n1` (stereo not shown) [Example 33, 2-bromo-6-(1-((4-(4-fluorophenyl)-1-methylpiperidin-4-yl)methoxy)ethyl)-4-(trifluoromethyl)p], the IC50 on NK-1 and at hSERT was 0.01 to 100 nM each time.
With `CN1CCC(COCc2cc(C(F)(F)F)cc(-c3ccc(C#N)cc3)n2)(c2ccc(F)c(F)c2)CC1` [Example 81], the IC50 on NK-1 and at hSERT was 0.01 to 100 nM in each case.
`Cc1cc(-c2cc(C(F)(F)F)cc(C(C)OCC3(c4ccc(F)cc4)CCN(C)CC3)n2)ccc1C#N` (stereo not shown) [Example 97]: the IC50 on NK-1 was in the range of 0.01 to 100 nM; on hSERT it was 100 to 300 nM.
Turning to `CN1CCC(COCc2cc(C(F)(F)F)cc(-c3ccc(C#N)cc3)n2)(c2cccc(F)c2)CC1` [Example 85], the IC50 on NK-1 and on hSERT was 0.01 to 100 nM in each case.
Take `Cc1ccc(-c2cc(C(F)(F)F)cc(COCC3(c4ccccc4)CCN(C)CC3)n2)cc1` [Example 40]: the IC50 at NK-1 and at hSERT was 0.01 to 100 nM throughout.
On to `COc1ccc(-c2cc(C(F)(F)F)cc(COCC3(c4ccccc4)CCN(C)CC3)n2)cc1` [Example 38, 2-(4-methoxyphenyl)-6-(((1-methyl-4-phenylpiperidin-4-yl)methoxy)methyl)-4-(trifluoromethyl)pyridine], for which the IC50 on NK-1 and at hSERT was 0.01 to 100 nM each time.
For `COc1ccc(-c2cc(C(F)(F)F)cc(COCC3(c4ccc(F)cc4)CCN(C)CC3)n2)cc1F` [Example 75], the IC50 on NK-1 and at hSERT was 0.01 to 100 nM each time.
In the case of `COC(=O)c1ccc(-c2cc(C(F)(F)F)cc(COCC3(c4ccc(F)cc4)CCN(C)CC3)n2)c(F)c1` [Example 63], the IC50 on NK-1 and on hSERT was 0.01 to 100 nM in each case.
Take `CC(OCC1(c2ccc(F)cc2)CCN(C)CC1)c1cc(C(F)(F)F)cc(N2CCCC2)n1` (stereo not shown) [Example 86]: the IC50 on NK-1 and at hSERT was 0.01 to 100 nM in each case.
Take `N#CC1CCN(c2cc(C(F)(F)F)cc(COCC3(c4ccc(F)cc4)CCNCC3)n2)CC1` [Example 17]: the IC50 at NK-1 and on hSERT (setting [1]) was 0.01 to 100 nM in each case.
Turning to `CN1CCC(COCc2cc(C(F)(F)F)cc(-c3ccc(F)cc3F)n2)(c2ccc(F)cc2)CC1` [Example 62], the IC50 on NK-1 and at hSERT was 0.01 to 100 nM throughout.
Regarding `CC(OCC1(c2ccc(F)cc2)CCN(C)CC1)c1cc(C(F)(F)F)cc(N2CC[C@@H](F)C2)n1` (stereo partly shown) [Example 87], the IC50 on NK-1 and on hSERT (setting [1]) was 0.01 to 100 nM in each case.
On to `CN1CCC(COCc2cc(C(F)(F)F)cc(N3CCCC3)n2)(c2ccccc2F)CC1` [Example 55], for which the IC50 on NK-1 and at hSERT (setting [1]) was 0.01 to 100 nM each time.
As to `N#Cc1cc(C(F)(F)F)cc(COCC2(c3ccccc3)CCNCC2)n1` [Example 31], the figures for the IC50 on NK-1 and at hSERT (setting [1]) were more than 300 nM and 0.01 to 100 nM, respectively.
